Reference: article PMC10934261, “Designing Potent Anti-Cancer Agents: Synthesis and Molecular Docking Studies of Thieno[2,3-d][1,2,4]triazolo[1,5-a]pyrimidine Derivatives” (Molecules, 2024)

Tests used:
[1] = system: human skin normal cell line (BJ-1); assay: Cytotoxicity on normal cells (MTT assay), BJ-1; assay type: cell-based; details: for Percentage cytotoxicity on normal BJ1 human skin fibroblast cell line: average ± standard deviation; for IC50: Homo sapiens, BJ-1 normal skin cells, 48 h incubation, mean of three values, read-out: IC50 (Mean ± SD) BJ-1
Procedure: It can therefore be concluded that 10b presents a safer cytotoxicity profile than 10e.
The cell lines were obtained from Karolinska Center, Department of Oncology and Pathology, Karolinska Institute and Hospital, Stockholm, Sweden. as follows: human breast MCF-7, colorectal HCT-116 and prostate PC-3 cancer cell lines and human skin normal BJ-1 cell line. Exponentially, cells were cultured at a concentration of 10^4 cells/well for 24 h, afterwards fresh medium containing different concentrations of the tested samples was added. Serial two-fold dilution of the tested samples were added using a multichannel pipette. Moreover, all cells were cultivated at 37 °C, 5% CO2 and 95% humidity. Also, incubation of control cells occurred at 37 °C. […] After rinsing the wells using water until stain free, 30% glacial acetic acid was added to all wells with shaking the plates on a Microplate reader (TECAN, Inc.) to measure the absorbance at a wavelength of 490 nm. The cytotoxicity was estimated by IC50 in μM, which is the concentration that inhibits 50% of growth of cancer cells. […]
(§1) 1.1. In vitro cytotoxic screening
The cell lines were obtained from Karolinska Center, Department of Oncology and Pathology, Karolinska Institute and Hospital, Stockholm, Sweden. as follows: human breast MCF-7, colorectal HCT-116 and prostate PC-3 cancer cell lines and human skin normal BJ-1 cell line. Exponentially, cells were placed in 10^4 cells/ well for 24 h, and then add fresh medium which containing different concentration of the tested sample. Serial two-fold dilution of the tested sample were added using a multichannel pipette. Moreover, all cells were cultivated at 37 °C, 5% CO2 and 95% humidity. Also, incubation of control cells occurred at 37 °C. […]
Rinse the wells using water until no stain. After that, add 30% glacial acetic acid to all wells with shaking plates on Microplate reader (TECAN, Inc.) to measure the absorbance, using a test wavelength of 490 nm. Besides, compare the treated samples with the control cell. The cytotoxicity was estimated by IC50 in (μ M), the concentration that inhibits 50% of growth of cancer cell. […]
(§2) The molecular docking simulation of the promising in vitro screened cyclopenta[4,5]thieno[2,3-d][1,2,4]triazolo[1,5-a]pyrimidin-9(6H)-ones 10b and 10e against EGFR and PI3K was done using the Molecular Operating Environment software (MOE-Dock) version 2014.0901. The co-crystallized structures of EGFR and PI3K kinases complexed with their native ligands, erlotinib and quinolone LXX, were downloaded from the protein data bank (PDB codes: 1M17 and 3L54, respectively). All minimizations were performed using MOE until an RMSD gradient of 0.05 kcal∙mol−1Å−1 with MMFF94x force field and the partial charges were automatically calculated. Preparation of the enzyme structures was done for molecular docking using Protonate 3D protocol with the default options in MOE. London dG scoring function and Triangle Matcher placement method were used in the docking protocol. Initially, the original ligands were re-docked into the active binding site of EGFR and PI3K kinases to assess the root-mean-square deviation values. Then, the docking studies of the newly targeted compounds were estimated within the ATP-binding sites after elimination of the co-crystallized […]
Percentage cytotoxicity of 100 µM of the compounds on human tumor cell lines*

[2] = system: human breast MCF-7 cancer cell line; assay: In vitro cytotoxic screening (MTT assay), MCF-7; assay type: cell-based; details: for Percentage cytotoxicity on MCF-7: average ± standard deviation; for IC50: Homo sapiens, MCF7, MCF-7, 48 h incubation, mean of three values, read-out: IC50 (Mean ± SD) MCF-7
Procedure: (§3) Using human breast MCF-7, colorectal HCT-116, and prostate PC-3 cancer cell lines, preliminary antiproliferative effectiveness of cyclopenta[4,5]thieno[2,3-d][1,2,4]triazolo[1,5-a]pyrimidin-9(6H)-ones 4–16 was established in vitro through MTT assay at different concentrations (100, 50, 25 and 12.5 μM) (Figure 2).
(§4) The cell lines were obtained from Karolinska Center, Department of Oncology and Pathology, Karolinska Institute and Hospital, Stockholm, Sweden. as follows: human breast MCF-7, colorectal HCT-116 and prostate PC-3 cancer cell lines and human skin normal BJ-1 cell line. Exponentially, cells were cultured at a concentration of 10^4 cells/well for 24 h, afterwards fresh medium containing different concentrations of the tested samples was added. Serial two-fold dilution of the tested samples were added using a multichannel pipette. Moreover, all cells were cultivated at 37 °C, 5% CO2 and 95% humidity. Also, incubation of control cells occurred at 37 °C. However, after incubation for 24 h different concentrations of samples (100, 50, 25 and 12.5 µM) were added and the incubation was continued for 48 h, then crystal violet solution 1% was added to each well for 0.5 h to examine the presence of viable cells. After rinsing the wells using water until stain free, 30% glacial acetic acid was added to all wells with shaking the plates on a Microplate reader (TECAN, Inc.) to measure the absorbance at a wavelength of 490 nm. The cytotoxicity was estimated by IC50 in μM, which is the concentration that inhibits 50% of growth of cancer cells. […]
as §1
(§5) The cell lines were obtained from Karolinska Center, Department of Oncology and Pathology, Karolinska Institute and Hospital, Stockholm, Sweden. as follows: human breast MCF-7, colorectal HCT-116 and prostate PC-3 cancer cell lines and human skin normal BJ-1 cell line. Exponentially, cells were placed in 10^4 cells/ well for 24 h, and then add fresh medium which containing different concentration of the tested sample. Serial two-fold dilution of the tested sample were added using a multichannel pipette. Moreover, all cells were cultivated at 37 °C, 5% CO2 and 95% humidity. Also, incubation of control cells occurred at 37 °C. However, after incubation for 24 h different concentrations of sample (100, 50, 25 and 12.5 µM) were added and continued the incubation for 48 h, then, add the crystal violet solution 1% to each well for 0.5 h to examine viable cells. Rinse the wells using water until no stain. After that, add 30% glacial acetic acid to all wells with shaking plates on Microplate reader (TECAN, Inc.) to measure the absorbance, using a test wavelength of 490 nm. Besides, compare the treated samples with the control cell. The cytotoxicity was estimated by IC50 in (μ M), the concentration that inhibits 50% of growth of cancer cell. […]
as §2, with “targeted” for “targeted compounds were estimated within the ATP-binding sites after elimination of the co-crystallized”

[3] = system: human prostate PC-3 cancer cell line; assay: In vitro cytotoxic screening (MTT assay), PC-3; assay type: cell-based; details: for Percentage cytotoxicity on PC-3: average ± standard deviation; for IC50: Homo sapiens, PC-3, 48 h incubation, mean of three values, read-out: IC50 (Mean ± SD) PC-3
Procedure: as §3, §4, §1, §5
as §2, with “targeted” for “targeted compounds were estimated within the ATP-binding sites after elimination of the co-crystallized”

[4] = system: human colorectal HCT-116 cancer cell line; assay: In vitro cytotoxic screening (MTT assay), HCT-116; assay type: cell-based; details: for Percentage cytotoxicity on HCT-116: average ± standard deviation; for IC50: Homo sapiens, HCT-116, 48 h incubation, mean of three values, read-out: IC50 (Mean ± SD) HCT-116
Procedure: as §3, §4, §1, §5
as §2, with “targeted” for “targeted compounds were estimated within the ATP-binding sites after elimination of the co-crystallized”

O=c1c2c3c(sc2nc2[nH]c(-c4ccc(Br)cc4)nn12)CCC3 [Compound 10b, 2-(4-Bromophenyl)-7,8-dihydro-3H-cyclopenta[4,5]thieno[2,3-d][1,2,4]triazolo[1,5-a]pyrimidin-9(6H)-one]
Percentage cytotoxicity on normal BJ1 human skin fibroblast cell line ([1]; 12.5 µM): 16.8±8.3% | Percentage cytotoxicity on normal BJ1 human skin fibroblast cell line ([1]; 25 µM): 34.2±7.4% | Percentage cytotoxicity on normal BJ1 human skin fibroblast cell line ([1]; 50 µM): 34.6±3.8% | Percentage cytotoxicity on normal BJ1 human skin fibroblast cell line ([1]; 100 µM): 39.3±7.7% | IC50 [1]: 222 ± 30 µM | Percentage cytotoxicity on MCF-7 ([2]; 12.5 µM): 30.3±4.3% | Percentage cytotoxicity on MCF-7 ([2]; 25 µM): 64.4±2.2% | Percentage cytotoxicity on MCF-7 ([2]; 50 µM): 80.8±2.8% | Percentage cytotoxicity on MCF-7 ([2]; 100 µM): 86.4±10% | IC50 [2]: 19.4 ± 0.22 µM | Percentage cytotoxicity on PC-3 ([3]; 12.5 µM): 10.9±5.2% | Percentage cytotoxicity on PC-3 ([3]; 25 µM): 18.4±1.7% | Percentage cytotoxicity on PC-3 ([3]; 50 µM): 22.1±0.6% | Percentage cytotoxicity on PC-3 ([3]; 100 µM): 41.4±0.7% | Percentage cytotoxicity on HCT-116 ([4]; 12.5 µM): 6.2±0.9% | Percentage cytotoxicity on HCT-116 ([4]; 25 µM): 14.3±1.7% | Percentage cytotoxicity on HCT-116 ([4]; 50 µM): 15.0±2.5% | Percentage cytotoxicity on HCT-116 ([4]; 100 µM): 24.4±6.6% | melting point: 268 to 270 °C

O=c1c2c3c(sc2nc2[nH]c(-c4c5ccccc5cc5ccccc45)nn12)CCC3 [Compound 10e, 2-(Anthracen-9-yl)-3,6,7,8-tetrahydro-9H-cyclopenta[4,5]thieno[2,3-d][1,2,4]triazolo[1,5-a]pyrimidin-9-one]
Percentage cytotoxicity on normal BJ1 human skin fibroblast cell line ([1]; 12.5 µM): 13.8±2.1% | Percentage cytotoxicity on normal BJ1 human skin fibroblast cell line ([1]; 25 µM): 44.8±1.9% | Percentage cytotoxicity on normal BJ1 human skin fibroblast cell line ([1]; 50 µM): 58.1±3.2% | Percentage cytotoxicity on normal BJ1 human skin fibroblast cell line ([1]; 100 µM): 83.9±1.2% | IC50 [1]: 34.8 ± 4.5 µM | Percentage cytotoxicity on MCF-7 ([2]; 12.5 µM): 37.9±6.7% | Percentage cytotoxicity on MCF-7 ([2]; 25 µM): 85.6±3.6% | Percentage cytotoxicity on MCF-7 ([2]; 50 µM): 97.9±1.2% | Percentage cytotoxicity on MCF-7 ([2]; 100 µM): 98.3±0.5% | IC50 [2]: 14.5 ± 0.3 µM | Percentage cytotoxicity on PC-3 ([3]; 12.5 µM): 29.6±3.8% | Percentage cytotoxicity on PC-3 ([3]; 25 µM): 56.6±1.3% | Percentage cytotoxicity on PC-3 ([3]; 50 µM): 64.2±1.1% | Percentage cytotoxicity on PC-3 ([3]; 100 µM): 75.9±1.3% | IC50 [3]: 25.2 ± 0.4 µM | Percentage cytotoxicity on HCT-116 ([4]; 12.5 µM): 0.0±0.005% | Percentage cytotoxicity on HCT-116 ([4]; 25 µM): 19.0±4.9% | Percentage cytotoxicity on HCT-116 ([4]; 50 µM): 34.9±2.8% | Percentage cytotoxicity on HCT-116 ([4]; 100 µM): 86.7±4.4% | IC50 [4]: 57 ± 0.61 µM | melting point: 101 to 103 °C

COc1ccc(-c2nn3c(=O)c4c5c(sc4nc3n2[C@@H]2O[C@H](COC(C)=O)[C@@H](OC(C)=O)[C@H](OC(C)=O)[C@H]2OC(C)=O)CCC5)cc1 [Compound 16, 2-(4-Methoxyphenyl)-3-(2,3,4,6-tetra-O-acetyl-β-D-glocopyranosyl)-7,8-dihydro-3H-cyclopenta[4,5]thieno[2,3-d][1,2,4]triazolo[1,5-a]pyrimidin-9(6H)-one]
Percentage cytotoxicity on MCF-7 ([2]; 12.5 µM): 0.0±0.005% | Percentage cytotoxicity on MCF-7 ([2]; 25 µM): 0.0±0.005% | Percentage cytotoxicity on MCF-7 ([2]; 50 µM): 0.0±0.005% | Percentage cytotoxicity on MCF-7 ([2]; 100 µM): 29.5±1.6% | Percentage cytotoxicity on PC-3 ([3]; 12.5 µM): 0.0±0.005% | Percentage cytotoxicity on PC-3 ([3]; 25 µM): 0.0±0.005% | Percentage cytotoxicity on PC-3 ([3]; 50 µM): 0.0±0.005% | Percentage cytotoxicity on PC-3 ([3]; 100 µM): 14.5±1.6% | Percentage cytotoxicity on HCT-116 ([4]; 12.5 µM): 0.0±0.005% | Percentage cytotoxicity on HCT-116 ([4]; 25 µM): 0.0±0.005% | Percentage cytotoxicity on HCT-116 ([4]; 50 µM): 0.0±0.005% | Percentage cytotoxicity on HCT-116 ([4]; 100 µM): 1.0±0.5% | melting point: > 300 °C

COc1cccc2c1C(=O)c1c(O)c3c(c(O)c1C2=O)C[C@@](O)(C(=O)CO)C[C@@H]3O[C@H]1C[C@H](N)[C@H](O)[C@H](C)O1 [Doxorubicin, reference compound]
IC50 [1]: 49.2 ± 1.08 µM | IC50 [2]: 40 ± 3.9 µM | IC50 [3]: 6.8 ± 1.2 µM | IC50 [4]: 20.5 ± 2.1 µM
